In US20080214530A1, “Photo-Activated Disinfection” (priority 2003, published 2008) one finds optimum concentration data, which are given here for one compound.

The test system of the test is caries. The experiment in a line: optimum photosensitiser concentration for photo-activated disinfection of caries. The settings on record: at 635 nm. On the procedure:
The concentration of tolonium chloride will depend on the specific application and chosen wavelength. We have determined an optimum at 635 nm for caries of 12 μg/ml. Longer wavelengths and other applications especially periodontal disease where in vivo dilution may occur are likely to need greater concentrations, whereas shorter wavelengths may require reduced concentrations. Preferably, therefore, the concentration should fall within an overall range between 1 and 200 μg/ml. […] The reduction in efficacy as the concentration increases beyond the optimum is thought to be due to the accompanying increasing absorption limiting the light transmission through the treatment zone.

The structures appear in SMILES notation.

For `Cc1cc2nc3ccc(N(C)C)cc3[s+]c2cc1N` [tolonium chloride], the optimum concentration came out at 12 µg/mL.
